Measurements: patent US20230039858A1, “COMPOSITIONS AND METHODS RELATED TO MOLECULAR CONJUGATION” (IntoCell, Inc., priority 2019, published 2023)

Legend:
[1] = Plasma stability in human plasma, HPLC; type: in vitro ADME; conditions: 300 μM, 37° C., up to 7 days
Protocol: (§1) Compound N-Ac-Cys-AMA-10 and methyl phenyl sulfone (used as a standard material) were dissolved in DMSO to make a concentration of 30 mM. Then, each of human plasma (Biochemed 752PR—SC-PMG) and mouse plasma (Biochemed 029-APSC-MP) were mixed with the N-Ac-Cys-AMA-10 and MPS to make a final concentration of N-Ac-Cys-AMA-10 and methyl phenyl sulfone 300 μM. The resulting plasma mixtures were incubated in a water bath at 37° C. Aliquots were taken before the reaction and on 1 day, 2 days, 4 days, and 7 days after the reaction, wherein each aliquot was 200 μL. To complete the reaction, a two-fold volume of acetonitrile was added, followed by brief vortexing, and centrifugation for plasma protein precipitation. Each supernatant obtained after centrifugation was collected and analyzed by HPLC.

[2] = Plasma stability in mouse plasma, HPLC; type: in vitro ADME; conditions: 300 μM, 37° C., up to 7 days
Protocol: as §1

[3] = Relative reaction rate with N-Ac-cysteine (LC/MS); type: physicochemical; conditions: with N-acetyl-L-cysteine in PBS buffer/DMSO, 1 hour, room temperature; relative to Reference A = 1
Protocol: To a homogeneous solutions of ‘reference A’, PyrMPS-1, and mMPS-4 (10 stock solution 10 mmol) in PBS buffer (870 μL) and DMSO (90 μL) was added N-acetyl-L-cysteine (10 stock solution 10 mmol) and stirred for 1 hour at room temperature. The resulting samples were checked for reaction rate using LC/MS.

With `C#CCOCCOCCOCCNC(=O)c1cc(C(=O)CC(SC[C@H](NC(C)=O)C(=O)O)C(N)=O)cc(C(=O)NCCOCCOCCOCC#C)c1` (some centres unmarked) [N-Ac-Cys-AMA-10] the “stability in human plasma” value [1] was “high stability” and the “stability in mouse plasma” value [2] was “high stability”.

For `Cc1ccc(S(=O)(=O)CCC(=O)c2ccc(C(=O)NCCOCCOCCOCCOCCOCCN=[N+]=[N-])cc2)cc1` [Reference A, reference compound], the Relative reaction rate [3] was 1 folds.

With `COC(=O)c1cc(C(=O)CCS(=O)(=O)c2ccc(C)cc2)cc(C(=O)NCCOCCOCCOCCOCCOCCN=[N+]=[N-])c1` [mMPS-4] the Relative reaction rate [3] was “Increase 7 folds”.

In the case of `Cc1ccc(S(=O)(=O)CCC(=O)c2cncc(C(=O)NCCOCCOCCOCCOCCOCCN=[N+]=[N-])c2)cc1` [pyrMSP-1], the Relative reaction rate [3] is reported as “Increase 11.5 folds”.
